{"source": "ChEMBL document CHEMBL1137691", "about": "“Diazinium salts with dihydroxyacetophenone skeleton: Syntheses and antimicrobial activity” (2009)", "format_in_all_cases": "functional", "key": {"Bacillus subtilis": {"tested_on": "Bacillus subtilis", "test": "Antibacterial activity against Bacillus subtilis at 30 ug/disk after 24 hrs by diffusion technique", "details": "read-out: DIZ"}, "Pseudomonas aeruginosa": {"tested_on": "Pseudomonas aeruginosa", "test": "Antibacterial activity against Pseudomonas aeruginosa at 30 ug/disk after 24 hrs by diffusion technique", "details": "read-out: DIZ"}, "Escherichia coli": {"tested_on": "Escherichia coli", "test": "Antibacterial activity against Escherichia coli ATCC 25922 at 30 ug/disk after 24 hrs by diffusion technique", "details": "ATCC 25922, 24 h, read-out: DIZ"}, "Staphylococcus aureus": {"tested_on": "Staphylococcus aureus", "test": "Antibacterial activity against Staphylococcus aureus ATCC 25923 at 30 ug/disk after 24 hrs by diffusion technique", "details": "ATCC 25923, 24 h, read-out: DIZ"}, "Bacillus cereus": {"tested_on": "Bacillus cereus", "test": "Antibacterial activity against Bacillus cereus at 30 ug/disk after 24 hrs by diffusion technique", "details": "read-out: DIZ"}, "[1]": {"tested_on": "Staphylococcus saprophyticus", "test": "Antibacterial activity against Staphylococcus saprophyticus at 30 ug/disk after 24 hrs by diffusion technique", "details": "read-out: DIZ"}, "Micrococcus luteus": {"tested_on": "Micrococcus luteus", "test": "Antibacterial activity against Sarcina lutea ATCC 9341 at 30 ug/disk after 24 hrs by diffusion technique", "details": "ATCC 9341, 24 h, read-out: DIZ"}, "Candida albicans": {"tested_on": "Candida albicans", "test": "Antifungal activity against Candida albicans at 100 ug/disk after 24 hrs by diffusion technique", "details": "for zone of inhibition at 100 µg/disc: read-out: DIZ"}}, "data": [{"compound": "O=C(N[C@H](CO)[C@H](O)c1ccc([N+](=O)[O-])cc1)C(Cl)Cl", "note": "[CHLORAMPHENICOL]", "values": [{"measurement": "zone of inhibition at 30 µg/disc", "setting": "Bacillus subtilis", "value": 22, "unit": "mm"}, {"measurement": "zone of inhibition at 30 µg/disc", "setting": "Pseudomonas aeruginosa", "value": 11, "unit": "mm"}, {"measurement": "zone of inhibition at 30 µg/disc", "setting": "Escherichia coli", "value": 22, "unit": "mm"}, {"measurement": "zone of inhibition at 30 µg/disc", "setting": "Staphylococcus aureus", "value": 23, "unit": "mm"}, {"measurement": "zone of inhibition at 30 µg/disc", "setting": "Bacillus cereus", "value": 22, "unit": "mm"}, {"measurement": "zone of inhibition at 30 µg/disc", "setting": "[1]", "value": 23, "unit": "mm"}, {"measurement": "zone of inhibition at 30 µg/disc", "setting": "Micrococcus luteus", "value": 38, "unit": "mm"}]}, {"compound": "Cc1cc[n+](CC(=O)c2ccc(O)c(O)c2)cn1", "values": [{"measurement": "zone of inhibition at 100 µg/disc", "setting": "Candida albicans", "value": 27, "unit": "mm"}, {"measurement": "zone of inhibition at 30 µg/disc", "setting": "Bacillus subtilis", "value": 36, "unit": "mm"}, {"measurement": "zone of inhibition at 30 µg/disc", "setting": "Pseudomonas aeruginosa", "value": 30, "unit": "mm"}, {"measurement": "zone of inhibition at 30 µg/disc", "setting": "Escherichia coli", "value": 41, "unit": "mm"}, {"measurement": "zone of inhibition at 30 µg/disc", "setting": "Staphylococcus aureus", "value": 31, "unit": "mm"}, {"measurement": "zone of inhibition at 30 µg/disc", "setting": "Bacillus cereus", "value": 35, "unit": "mm"}, {"measurement": "zone of inhibition at 30 µg/disc", "setting": "[1]", "value": 35, "unit": "mm"}, {"measurement": "zone of inhibition at 30 µg/disc", "setting": "Micrococcus luteus", "value": 40, "unit": "mm"}]}, {"compound": "O=C(C[n+]1ccccn1)c1ccc(O)c(O)c1", "values": [{"measurement": "zone of inhibition at 100 µg/disc", "setting": "Candida albicans", "value": 0, "unit": "mm"}, {"measurement": "zone of inhibition at 30 µg/disc", "setting": "Bacillus subtilis", "value": 11, "unit": "mm"}, {"measurement": "zone of inhibition at 30 µg/disc", "setting": "Pseudomonas aeruginosa", "value": 20, "unit": "mm"}, {"measurement": "zone of inhibition at 30 µg/disc", "setting": "Escherichia coli", "value": 30, "unit": "mm"}, {"measurement": "zone of inhibition at 30 µg/disc", "setting": "Staphylococcus aureus", "value": 17, "unit": "mm"}, {"measurement": "zone of inhibition at 30 µg/disc", "setting": "Bacillus cereus", "value": 20, "unit": "mm"}, {"measurement": "zone of inhibition at 30 µg/disc", "setting": "[1]", "value": 15, "unit": "mm"}, {"measurement": "zone of inhibition at 30 µg/disc", "setting": "Micrococcus luteus", "value": 30, "unit": "mm"}]}, {"compound": "Cc1ccc(-c2ccc[n+](CC(=O)c3ccc(O)c(O)c3)n2)cc1", "values": [{"measurement": "zone of inhibition at 100 µg/disc", "setting": "Candida albicans", "value": 25, "unit": "mm"}, {"measurement": "zone of inhibition at 30 µg/disc", "setting": "Bacillus subtilis", "value": 35, "unit": "mm"}, {"measurement": "zone of inhibition at 30 µg/disc", "setting": "Pseudomonas aeruginosa", "value": 16, "unit": "mm"}, {"measurement": "zone of inhibition at 30 µg/disc", "setting": "Escherichia coli", "value": 40, "unit": "mm"}, {"measurement": "zone of inhibition at 30 µg/disc", "setting": "Staphylococcus aureus", "value": 23, "unit": "mm"}, {"measurement": "zone of inhibition at 30 µg/disc", "setting": "Bacillus cereus", "value": 33, "unit": "mm"}, {"measurement": "zone of inhibition at 30 µg/disc", "setting": "[1]", "value": 40, "unit": "mm"}, {"measurement": "zone of inhibition at 30 µg/disc", "setting": "Micrococcus luteus", "value": 41, "unit": "mm"}]}, {"compound": "Cc1ccc[n+](CC(=O)c2ccc(O)c(O)c2)n1", "values": [{"measurement": "zone of inhibition at 100 µg/disc", "setting": "Candida albicans", "value": 15, "unit": "mm"}, {"measurement": "zone of inhibition at 30 µg/disc", "setting": "Bacillus subtilis", "value": 28, "unit": "mm"}, {"measurement": "zone of inhibition at 30 µg/disc", "setting": "Pseudomonas aeruginosa", "value": 18, "unit": "mm"}, {"measurement": "zone of inhibition at 30 µg/disc", "setting": "Escherichia coli", "value": 28, "unit": "mm"}, {"measurement": "zone of inhibition at 30 µg/disc", "setting": "Staphylococcus aureus", "value": 26, "unit": "mm"}, {"measurement": "zone of inhibition at 30 µg/disc", "setting": "Bacillus cereus", "value": 29, "unit": "mm"}, {"measurement": "zone of inhibition at 30 µg/disc", "setting": "[1]", "value": 29, "unit": "mm"}, {"measurement": "zone of inhibition at 30 µg/disc", "setting": "Micrococcus luteus", "value": 40, "unit": "mm"}]}, {"compound": "O=C(C[n+]1ccc(O)nc1)c1ccc(O)c(O)c1", "values": [{"measurement": "zone of inhibition at 100 µg/disc", "setting": "Candida albicans", "value": 28, "unit": "mm"}, {"measurement": "zone of inhibition at 30 µg/disc", "setting": "Bacillus subtilis", "value": 38, "unit": "mm"}, {"measurement": "zone of inhibition at 30 µg/disc", "setting": "Pseudomonas aeruginosa", "value": 36, "unit": "mm"}, {"measurement": "zone of inhibition at 30 µg/disc", "setting": "Escherichia coli", "value": 44, "unit": "mm"}, {"measurement": "zone of inhibition at 30 µg/disc", "setting": "Staphylococcus aureus", "value": 33, "unit": "mm"}, {"measurement": "zone of inhibition at 30 µg/disc", "setting": "Bacillus cereus", "value": 32, "unit": "mm"}, {"measurement": "zone of inhibition at 30 µg/disc", "setting": "[1]", "value": 35, "unit": "mm"}, {"measurement": "zone of inhibition at 30 µg/disc", "setting": "Micrococcus luteus", "value": 42, "unit": "mm"}]}, {"compound": "O=C(C[n+]1cccc(-c2ccc(Br)cc2)n1)c1ccc(O)c(O)c1", "values": [{"measurement": "zone of inhibition at 100 µg/disc", "setting": "Candida albicans", "value": 12, "unit": "mm"}, {"measurement": "zone of inhibition at 30 µg/disc", "setting": "Bacillus subtilis", "value": 16, "unit": "mm"}, {"measurement": "zone of inhibition at 30 µg/disc", "setting": "Pseudomonas aeruginosa", "value": 15, "unit": "mm"}, {"measurement": "zone of inhibition at 30 µg/disc", "setting": "Escherichia coli", "value": 15, "unit": "mm"}, {"measurement": "zone of inhibition at 30 µg/disc", "setting": "Staphylococcus aureus", "value": 17, "unit": "mm"}, {"measurement": "zone of inhibition at 30 µg/disc", "setting": "Bacillus cereus", "value": 9, "unit": "mm"}, {"measurement": "zone of inhibition at 30 µg/disc", "setting": "[1]", "value": 21, "unit": "mm"}, {"measurement": "zone of inhibition at 30 µg/disc", "setting": "Micrococcus luteus", "value": 30, "unit": "mm"}]}, {"compound": "NYSTATIN", "values": [{"measurement": "inhibition zone (IZ)", "setting": "Candida albicans", "value": 28, "unit": "mm"}]}]}
